Data: patent publication US20100130604A1, “USE OF ROSMARINIC ACID IN MANUFACTURE OF MEDICAMENTS FOR TREATING OR PREVENTING HEPATIC AND RENAL DISEASES” (SHANGDONG LUYE NATURAL DRUG RESEARCH AND DEVELOPMENT CO., …, priority 2006, published 2010)
Read-outs that look alike come from different tables or passages of the source.

What was measured:
[1] = test system: CRF rats; experiment: CRF induced by 5/6 nephrectomy in rats; format: in vivo, Sprague Dawley rats
[2] = test system: CTGF mRNA; experiment: RT-PCR detection of CTGF mRNA expression in HSC-T6; format: cell-based; conditions: for CTGF mRNA expression rate (%): control 98.5
Description: Total RNA was extracted from the cell lysate obtained in section 2.3 according the manufacturer's instructions with UNIQ-10 column total RNA extraction kit. A UV spectrophotometer was used to measure the concentration and purity. This was repeated three times and the total RNA concentration was calculated.
Reaction system: 1 μL of RT product; 10 μL of 2×PCR Master; 1 μL of each of sense primer and anti-sense primer; added double distilled water to 20 μL.
Sense primer: 5′-[…]-3′;
Anti-sense primer: 5′-[…]-3′; primer length of 383 bp;
Internal standard GAPDH (Kangcheng Bio-tech Inc.), with sense primer as 5′-[…]-3′, anti-sense primer as 5′-[…]-3′, and length of 452 bp;
Reaction conditions: pre-denature at 94° C. for 2 min, denature at 94° C. for 45 s, anneal at 54.9° C. for 30 s, extend at 72° C. for 60 s, extend at 72° C. for 10 min after 35 cycles and detect with 1.2% agarose gel electrophoresis. Scan with gel image system and calculate the ratio of gray scale between CTGF and GAPDH as an indicator of CTGF expression.
According to the results from the MTT method, groups of 0, 10, and 50 mg/L RA were selected and subjected to RT-PCR.

[3] = test system: HSC-T6 cells; experiment: Inhibitory effect of RA on HSC-T6 cell growth (MTT); format: cell-based; conditions: for inhibition at 0.1 µg/mL / inhibition at 1 µg/mL / inhibition at 10 µg/mL / inhibition at 50 µg/mL / inhibition at 100 µg/mL: HSC-T6, read-out: Inhibition rate (%); for inhibition at 0.1 µg/mL: 0.1 mg/L; for inhibition at 1 µg/mL: 1 mg/L; for inhibition at 10 µg/mL: 10 mg/L; for inhibition at 50 µg/mL: 50 mg/L; for inhibition at 100 µg/mL: 100 mg/L
Description: Cells and experimental groups: HSC cell line was HSC-T6 (Shanghai Biosis Biotechnology Co. Ltd.), with the phenotype of active HSC. The cells were divided into groups for 0, 2.5, 5, 10, 20, and 40 μmol·L^−1 of RA. MTT method (Ye T and Liu X C, Effect of Pentoxifilline on Proliferation of Mesangial Cell Cultured in glucose-rich Medium and on CTGF Expression, Chinese Pharmacological Bulletin, 2004, 20(8): 883-885) was used to determine the effective RA concentration. Effects of RA on HSC-T6 proliferation and CTGF expression were examined.
A 1000 mg/L stock solution of RA in DMEM medium was prepared, and filtered through 0.22 μm microfilter to remove bacteria. The stock was then aliquoted in appropriate containers and stored at −20° C. in dark. It is good for use within 2 weeks. DMEM supplemented with 2% fetal bovine serum (FBS) was used to dilute the stock to desired concentrations before use.
HSC-T6 cells were cultured in DMEM supplemented with 100 U·mL^−1 penicillin, 100 U·mL^−1 streptomycin, and 10% FBS at 37° C., 5% CO2, and saturated humidity. Medium was changed every other day. The culture was digested with 0.002% EDTA and 0.25% trypsin at 80-90% confluence. And the cells were passaged at 1:4.
HSC-T6 cells at logarithmic phase after thawed were digested with trypsin and seeded to 96-well plate in DMEM supplemented with 5% FBS at the density of 1×10^4. After 24 hours culture, different concentrations of RA were added according to table 1. Each concentration of RA was added to 6 wells. Blank wells were designed to serve as control. […] The supernatant was discarded after 4 hours of incubation, and […] of dimethyl sufoxide (DMSO) was added to each well to obtain cell lysate, which was then shaken well before detected for OD value on ELISA reader (492 nm). Cell growth inhibition rates were calculated.

SMILES: O=C(/C=C/c1ccc(O)c(O)c1)O[C@H](Cc1ccc(O)c(O)c1)C(=O)O [RA, R(+)2-{[3-(3,4-dihydroxylphenyl-(oxo-2-propenyl)oxy]3,4-dihydroxylphenylpropionic acid]}]
- Serum creatinine ([1]; 4 weeks, i.v. 2.5 mg/kg): 1.32 ± 0.18 mg/dL
- Serum urea nitrogen ([1]; 4 weeks, i.v. 2.5 mg/kg): 21.12 ± 2.40 mg/dL
- Serum creatinine ([1]; 4 weeks, i.v. 5 mg/kg): 1.29 ± 0.31 mg/dL
- Serum urea nitrogen ([1]; 4 weeks, i.v. 5 mg/kg): 16.90 ± 4.09 mg/dL
- Serum creatinine ([1]; 4 weeks, i.v. 25 mg/kg): 1.12 ± 0.24 mg/dL
- Serum urea nitrogen ([1]; 4 weeks, i.v. 25 mg/kg): 14.63 ± 3.25 mg/dL
- Serum creatinine ([1]; 4 weeks, i.v. 75 mg/kg): 1.02 ± 0.19 mg/dL
- Serum urea nitrogen ([1]; 4 weeks, i.v. 75 mg/kg): 13.39 ± 2.45 mg/dL
- Serum creatinine ([1]; 4 weeks, i.v. 150 mg/kg): 1.01 ± 0.33 mg/dL
- Serum urea nitrogen ([1]; 4 weeks, i.v. 150 mg/kg): 12.85 ± 3.88 mg/dL
- Serum creatinine ([1]; 4 weeks, p.o. 5 mg/kg): 1.55 ± 0.16 mg/dL
- Serum creatinine ([1]; 4 weeks, p.o. 10 mg/kg): 1.42 ± 0.24 mg/dL
- Serum urea nitrogen ([1]; 4 weeks, p.o. 10 mg/kg): 18.60 ± 3.11 mg/dL
- Serum creatinine ([1]; 4 weeks, p.o. 50 mg/kg): 1.53 ± 0.15 mg/dL
- Serum creatinine ([1]; 4 weeks, p.o. 150 mg/kg): 1.30 ± 0.22 mg/dL
- Serum urea nitrogen ([1]; 4 weeks, p.o. 150 mg/kg): 17.01 ± 3.95 mg/dL
- Serum creatinine ([1]; 4 weeks, p.o. 300 mg/kg): 1.29 ± 0.28 mg/dL
- Serum urea nitrogen ([1]; 4 weeks, p.o. 300 mg/kg): 16.76 ± 4.30 mg/dL
- Serum creatinine ([1]; 8 weeks, i.v. 2.5 mg/kg): 1.89 ± 0.22 mg/dL
- Serum urea nitrogen ([1]; 8 weeks, i.v. 2.5 mg/kg): 22.15 ± 3.09 mg/dL
- Serum creatinine ([1]; 8 weeks, i.v. 5 mg/kg): 1.75 ± 0.37 mg/dL
- Serum urea nitrogen ([1]; 8 weeks, i.v. 5 mg/kg): 21.73 ± 5.26 mg/dL
- Serum creatinine ([1]; 8 weeks, i.v. 25 mg/kg): 1.51 ± 0.32 mg/dL
- Serum urea nitrogen ([1]; 8 weeks, i.v. 25 mg/kg): 19.25 ± 3.19 mg/dL
- Serum creatinine ([1]; 8 weeks, i.v. 75 mg/kg): 1.39 ± 0.26 mg/dL
- Serum urea nitrogen ([1]; 8 weeks, i.v. 75 mg/kg): 15.07 ± 3.45 mg/dL
- Serum creatinine ([1]; 8 weeks, i.v. 150 mg/kg): 1.37 ± 0.44 mg/dL
- Serum urea nitrogen ([1]; 8 weeks, i.v. 150 mg/kg): 14.85 ± 3.88 mg/dL
- Serum creatinine ([1]; 8 weeks, p.o. 5 mg/kg): 2.09 ± 0.22 mg/dL
- Serum creatinine ([1]; 8 weeks, p.o. 10 mg/kg): 2.06 ± 0.21 mg/dL
- Serum urea nitrogen ([1]; 8 weeks, p.o. 10 mg/kg): 25.65 ± 2.57 mg/dL
- Serum urea nitrogen ([1]; 8 weeks, p.o. 50 mg/kg): 23.91 ± 4.00 mg/dL
- Serum creatinine ([1]; 8 weeks, p.o. 150 mg/kg): 1.76 ± 0.30 mg/dL
- Serum urea nitrogen ([1]; 8 weeks, p.o. 150 mg/kg): 21.96 ± 3.95 mg/dL
- Serum urea nitrogen ([1]; 8 weeks, p.o. 300 mg/kg): 20.76 ± 5.50 mg/dL
- serum creatinine and urea nitrogen levels vs model group ([1]; i.v. 2.5, 5, 25, 75, 150 mg/kg, p.o. 5, 10, 50, 150, 300 mg/kg): can all significantly reduce serum creatinine and urea nitrogen levels
- renal pathological changes (HE, PAS) ([1]; week 4): alleviated in RA treated animals in a dose-dependent manner
- CTGF mRNA expression rate (%) ([2]; 10 mg/L): 71.2 ± 8.7 %
- CTGF mRNA expression rate (%) ([2]; 50 mg/L): 63.2 ± 9.2 %
- CTGF mRNA expression in HSC-T6 ([2]; 10 and 50 mg/L): significant inhibition on CTGF mRNA expression
- inhibition at 0.1 µg/mL ([3]; 12 h): 9.8 ± 2.3%
- inhibition at 0.1 µg/mL ([3]; 24 h): 12.1 ± 2.2%
- inhibition at 0.1 µg/mL ([3]; 48 h): 14.4 ± 2.3%
- inhibition at 1 µg/mL ([3]; 12 h): 20.7 ± 2%
- inhibition at 1 µg/mL ([3]; 24 h): 23 ± 2%
- inhibition at 1 µg/mL ([3]; 48 h): 25.3 ± 2.1%
- inhibition at 10 µg/mL ([3]; 12 h): 37.2 ± 2.6%
- inhibition at 10 µg/mL ([3]; 24 h): 38.6 ± 1.9%
- inhibition at 10 µg/mL ([3]; 48 h): 38.9 ± 3.2%
- inhibition at 50 µg/mL ([3]; 12 h): 52.3 ± 4.7%
- inhibition at 50 µg/mL ([3]; 24 h): 54.6 ± 4.6%
- inhibition at 50 µg/mL ([3]; 48 h): 55.2 ± 3.5%
- inhibition at 100 µg/mL ([3]; 12 h): 57.2 ± 2.3%
- inhibition at 100 µg/mL ([3]; 24 h): 59.6 ± 2.1%
- inhibition at 100 µg/mL ([3]; 48 h): 61.8 ± 2.2%
- HSC-T6 proliferation compared to the control group ([3]; different concentrations of RA): significantly inhibited HSC-T6 proliferation
